Residues, ends and D or L forms follow the SMILES beside them.
Experiments:
GPR55 [1] = target: T1, GPR55 (Homo sapiens, UniProt Q9Y2T6); test: Dynamic mass redistribution (DMR), concentration-response; type: cell-based; parameters: hIL-2Ra signal peptide (N); expressed in transfected cells; settings: mean; for DMR assays Emax (peak or AUC): SEM and n (1-4)
Protocol: (§1) 48 hr prior to parallel assaying, SNAP-tagged oGPCR cells were plated (10,000 cells/well) in fibronectin-coated 384-well Epic biosensor microplates (Corning) and poly-D-lysine coated white 384-well plates (for internalization assays). SNAP- GLP-1 receptor was plated alongside orphan receptor cells as an internal assay control for internalization assays. Receptor-expression was induced with 0.1 μg/ml doxycycline.
DMR assays provide a single integrated readout of ligand-dependent cellular response, utilizing an optical biosensor in specialized microplates to detect wavelength shifts of reflected light as it passes through the biosensor and the lower portion of the cell (∼150-200 nm). As a signal pathway agnostic approach, DMR assays are well-suited to the study of GPCRs ([Fang et al., 2008], [Schröder et al., 2011]). The mass redistribution response (Δ picometer (pm)) likely reflects a number of intracellular events, including cytoskeletal rearrangement, protein trafficking and receptor internalization. Orphan receptor-expressing cells were gently washed twice with assay buffer (HBSS with 1 mM CaCl2, 1 mM MgCl2, 20 mM HEPES, 0.01% pluronic F-68, pH 7.4) containing 0.1% DMSO and cells were equilibrated for 90 min at 22°C in the EPIC Benchtop (BT) System (Corning) to establish a stable DMR signal. After 3-5 min baseline recordings, peptides (10 μM) were added in duplicate wells using an electronic 384-channel Viaflo pipette (Integra Biosciences, Switzerland) and DMR responses were measured for 60 min at 22°C. 100 nM norepinephrine was included as an internal assay control to assess the cellular DMR response via endogenously-expressed adrenoceptors in the TREx 293 cells. Real-time data were processed using the BT to column converter MS-Excel macro (Corning) and analyzed in GraphPad Prism 7.0. DMR recordings in peptide screening experiments were buffer and solvent corrected and the area under the curve (AUC) was quantified. For subsequent validation experiments, peptides were diluted in assay buffer containing 0.1% DMSO and DMR assays were performed as above. […] Data represent mean ± standard error of the mean (SEM) from at least 3 biologically independent experiments.

GPR55 [2] = target: T1, GPR55; test: Real-time receptor internalization (TR-FRET), concentration-response; type: cell-based; parameters: hIL-2Ra signal peptide (N); expressed in transfected cells
Protocol: as §1
A TR-FRET real-time internalization assay was used to examine peptide-dependent changes in orphan receptor localization as described previously ([Foster and Bräuner-Osborne, 2018]). Surface-expressed SNAP-tagged receptors were labeled with a cell-impermeable luminescent terbium cryptate (100 nM SNAP Lumi4-Tb; Cisbio, France) for 1 hr at 37°C. Cells were washed to remove excess terbium and incubated with fluorescein-O-acetic acid (100 μM; Sigma Aldrich) for 5 min at 37°C. Peptides were added as for DMR assays, and internalization responses were recorded for 60 min at 37°C using an EnVision 2104 Multimode plate reader (PerkinElmer). 100 nM GLP-1 was used as a positive control for SNAP-GLP1R internalization. Real-time internalization responses were calculated based on TR-FRET (excitation 340 nm; emission 520 nm and 615 nm), and were expressed as the ratio between donor (terbium) and acceptor (fluorescein) emission. For peptide screening analysis (both DMR and internalization assays), we calculated the area under the curve from the real-time traces. […] Validation experiments for receptor internalization were performed as above. Internalization data was processed in MS-Excel and area under the curve was used to generate concentration-response curves using GraphPad Prism 7.0. Data represent mean ± standard error of the mean (SEM) from at least 3 biologically independent experiments.

[3] = receptor GPR55, SEM and n (2-4), read-out: DMR assays pEC50 (converted)
[4] = receptor GPR55, mean, SEM and n (3-4), read-out: Internalization assays pEC50 (converted)
[5] = GPR55, SEM and n, read-out: pEC50, DMR (AUC) (converted)
[6] = GPR55, mean, SEM and n, read-out: pEC50, Internalization (AUC) (converted)
[7] = receptor GPR55, mean, SEM and n (3-4)

T1 sequence (Q9Y2T6 2-319 limits assumed): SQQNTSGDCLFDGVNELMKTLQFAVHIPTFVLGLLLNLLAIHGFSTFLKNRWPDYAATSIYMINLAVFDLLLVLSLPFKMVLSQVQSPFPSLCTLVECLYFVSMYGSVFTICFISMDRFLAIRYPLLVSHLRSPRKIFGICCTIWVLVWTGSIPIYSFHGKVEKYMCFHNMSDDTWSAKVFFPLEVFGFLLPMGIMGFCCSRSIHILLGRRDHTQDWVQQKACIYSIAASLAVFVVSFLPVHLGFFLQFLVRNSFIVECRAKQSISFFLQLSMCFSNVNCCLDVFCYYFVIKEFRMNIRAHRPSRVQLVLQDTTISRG

| Compound | EC50 (GPR55 [1]; [3]) [nM] | EC50 (GPR55 [2]; [4]) [nM] | DMR assays Emax (peak or AUC) (GPR55 [1]; receptor GPR55) | Internalization assays Emax (AUC) (GPR55 [2]; [7]) | other results |
| --- | --- | --- | --- | --- | --- |
| CC(C)C[C@H](NC(=O)[C@H](C)NC(=O)CNC(=O)[C@H](CC(C)C)NC(=O)[C@H](CCCNC(=N)N)NC(=O)[C@@H](N)CCCCN)C(=O)N[C@@H](Cc1ccccc1)C(=O)N[C@@H](CC(N)=O)C(=O)N1CCC[C@H]1C(=O)N[C@@H](Cc1ccc(O)cc1)C(=O)N[C@@H](Cc1ccccc1)C(=O)N[C@@H](CC(=O)O)C(=O)N1CCC[C@H]1C(=O)N[C@@H](CC(C)C)C(=O)N[C@@H](CCC(N)=O)C(=O)N[C@@H](Cc1c[nH]c2ccccc12)C(=O)N[C@@H](CCCCN)C(=O)N[C@@H](CC(N)=O)C(=O)N[C@@H](CO)C(=O)N[C@@H](CC(=O)O)C(=O)N[C@@H](Cc1ccccc1)C(=O)N[C@@H](CCC(=O)O)C(=O)O [143 resynthesized] (H-KRLGALFNPYFDPLQWKNSDFE-OH) | 3160 | 6310 | – | – | – |
| CC[C@H](C)[C@H](NC(=O)CNC(=O)[C@H](CC(=O)O)NC(=O)[C@H](CO)NC(=O)[C@@H](N)Cc1cnc[nH]1)C(=O)N[C@@H](Cc1ccccc1)C(=O)N[C@H](C(=O)N[C@@H](CC(=O)O)C(=O)N[C@@H](CO)C(=O)N[C@@H](Cc1ccc(O)cc1)C(=O)N[C@@H](CO)C(=O)N[C@@H](CCCNC(=N)N)C(=O)N[C@@H](Cc1ccc(O)cc1)C(=O)N[C@@H](CCCNC(=N)N)C(=O)N[C@@H](CCCCN)C(=O)N[C@@H](CCC(N)=O)C(=O)N[C@@H](CCSC)C(=O)N[C@@H](C)C(=O)N[C@H](C(=O)N[C@@H](CCCCN)C(=O)N[C@@H](CCCCN)C(=O)N[C@@H](Cc1ccc(O)cc1)C(=O)N[C@@H](CC(C)C)C(=O)N[C@@H](C)C(=O)N[C@@H](C)C(=O)N[C@H](C(=O)N[C@@H](CC(C)C)C(=O)NCC(=O)N[C@@H](CCCCN)C(=O)N[C@@H](CCCNC(=N)N)C(=O)N[C@@H](Cc1ccc(O)cc1)C(=O)N[C@@H](CCCCN)C(=O)N[C@@H](CCC(N)=O)C(=O)N[C@@H](CCCNC(=N)N)C(=O)N[C@H](C(=O)N[C@@H](CCCCN)C(=O)N[C@@H](CC(N)=O)C(=O)N[C@@H](CCCCN)C(N)=O)C(C)C)C(C)C)C(C)C)[C@@H](C)O [168.1 (Phoenix)] | 148 | – | – | – | EC50 (GPR55 [2]; Internalization assays pEC50): 0.123 nM |
| CC(C)C[C@H](NC(=O)[C@H](C)NC(=O)CNC(=O)[C@H](CC(C)C)NC(=O)[C@H](CCCNC(=N)N)NC(=O)[C@@H](N)CCCCN)C(=O)N[C@@H](Cc1ccccc1)C(=O)N[C@@H](CC(N)=O)C(=O)N1CCC[C@H]1C(=O)N[C@@H](Cc1ccc(O)cc1)C(=O)N[C@@H](Cc1ccccc1)C(=O)N[C@@H](CC(=O)O)C(=O)N1CCC[C@H]1C(=O)N[C@@H](CC(C)C)C(=O)N[C@@H](CCC(N)=O)C(=O)N[C@@H](Cc1c[nH]c2ccccc12)C(=O)N[C@@H](CCCCN)C(=O)N[C@@H](CC(N)=O)C(=O)N[C@@H](CO)C(=O)N[C@@H](CC(=O)O)C(=O)N[C@@H](Cc1ccccc1)C(=O)N[C@@H](CCC(=O)O)C(=O)O [Chgb (511-532)] (H-KRLGALFNPYFDPLQWKNSDFE-OH) | – | – | – | – | EC50 (GPR55 [1]; [5]): 2400 nM; EC50 (GPR55 [2]; [6]): 4680 nM |
| CC[C@H](C)[C@H](NC(=O)[C@H](CC(=O)O)NC(=O)[C@@H](NC(=O)[C@H](Cc1ccc(O)cc1)NC(=O)[C@@H](NC(=O)CNC(=O)[C@H](CC(N)=O)NC(=O)[C@@H](NC(=O)[C@H](CC(C)C)NC(=O)[C@H](Cc1ccc(O)cc1)NC(=O)[C@H](CC(=O)O)NC(=O)[C@H](CC(C)C)NC(=O)[C@H](CCCNC(=N)N)NC(=O)[C@H](CO)NC(=O)[C@H](Cc1ccc(O)cc1)NC(=O)[C@H](CCCNC(=N)N)NC(=O)[C@@H](N)CCCCN)[C@@H](C)CC)[C@@H](C)CC)C(C)C)C(=O)O [MANSC (415-431)] (H-KRYSRLDYLINGIYVDI-OH) | – | – | – | – | EC50 (GPR55 [1]; [5]): 3090 nM; EC50 (GPR55 [2]; [6]): 13500 nM |
| CC[C@H](C)[C@H](NC(=O)CNC(=O)[C@H](CC(=O)O)NC(=O)[C@H](CO)NC(=O)[C@@H](N)Cc1c[nH]cn1)C(=O)N[C@@H](Cc1ccccc1)C(=O)N[C@H](C(=O)N[C@@H](CC(=O)O)C(=O)N[C@@H](CO)C(=O)N[C@@H](Cc1ccc(O)cc1)C(=O)N[C@@H](CO)C(=O)N[C@@H](CCCNC(=N)N)C(=O)N[C@@H](Cc1ccc(O)cc1)C(=O)N[C@@H](CCCNC(=N)N)C(=O)N[C@@H](CCCCN)C(=O)N[C@@H](CCC(N)=O)C(=O)N[C@@H](CCSC)C(=O)N[C@@H](C)C(=O)N[C@H](C(=O)O)C(C)C)[C@@H](C)O [Peptide 168.5] | 1 | 75900 | 31768 | 17.8 | – |
| CC[C@H](C)[C@H](NC(=O)CNC(=O)[C@H](CC(=O)O)NC(=O)[C@H](CO)NC(=O)[C@@H](N)Cc1c[nH]cn1)C(=O)N[C@@H](Cc1ccccc1)C(=O)N[C@H](C(=O)N[C@@H](CC(=O)O)C(=O)N[C@@H](CO)C(=O)N[C@@H](Cc1ccc(O)cc1)C(=O)N[C@@H](CO)C(=O)N[C@@H](CCCNC(=N)N)C(=O)N[C@@H](Cc1ccc(O)cc1)C(=O)N[C@@H](CCCNC(=N)N)C(=O)N[C@@H](CCCCN)C(=O)N[C@@H](CCC(N)=O)C(=O)N[C@@H](CCSC)C(=O)N[C@@H](C)C(=O)N[C@H](C(=O)N[C@@H](CCCCN)C(=O)N[C@@H](CCCCN)C(=O)N[C@@H](Cc1ccc(O)cc1)C(=O)N[C@@H](CC(C)C)C(=O)N[C@@H](C)C(=O)N[C@@H](C)C(=O)N[C@H](C(=O)N[C@@H](CC(C)C)C(=O)NCC(=O)N[C@@H](CCCCN)C(=O)N[C@@H](CCCNC(=N)N)C(=O)N[C@@H](Cc1ccc(O)cc1)C(=O)N[C@@H](CCCCN)C(=O)N[C@@H](CCC(N)=O)C(=O)N[C@@H](CCCNC(=N)N)C(=O)N[C@H](C(=O)N[C@@H](CCCCN)C(=O)N[C@@H](CC(N)=O)C(=O)N[C@@H](CCCCN)C(=O)NCC(=O)N[C@@H](CCCNC(=N)N)C(=O)N[C@@H](CCCNC(=N)N)C(=O)N[C@H](C(=O)N[C@@H](C)C(=O)N[C@@H](Cc1ccc(O)cc1)C(=O)N[C@@H](CC(C)C)C(=O)O)[C@@H](C)CC)C(C)C)C(C)C)C(C)C)[C@@H](C)O [Peptide 168.6] | 331 | 0.115 | – | – | – |
| CC(C)C[C@H](NC(=O)[C@@H](N)CC(=O)O)C(=O)N[C@@H](CC(C)C)C(=O)N1CCC[C@H]1C(=O)O [Peptide 213.1] (H-DLLP-OH) | 0.00724 | 195 | – | – | – |
| C[C@H](NC(=O)[C@@H](N)Cc1c[nH]c2ccccc12)C(=O)N[C@@H](CCCNC(=N)N)C(=O)NCC(=O)N[C@@H](CS)C(=O)N[C@@H](CO)C(=O)N[C@H](C(=O)NCC(=O)N[C@@H](CC(N)=O)C(=O)O)[C@@H](C)O [Peptide 213.2] (H-WARGCSTGN-OH) | 0.0676 | 0.724 | – | – | – |
| DLLPPRTPPYQVHISHREARGPSFRICVDFLG [Peptide 213.5] | – | – | -71711 | 19.6 | – |
| HSDGIFTDSYSRYRKQMAVKKYLAAVL [168 original] | – | – | 312490 | 32.4 | – |
| KRLGALFNPYFDPLQWKNSDFE [143 original] | – | – | 555860 | 39.5 | – |
| KRYSRLDYLINGIYVDI [114 original] | – | – | 619843 | 46.9 | – |

— publication PMC6838683, “Discovery of Human Signaling Systems: Pairing Peptides to G Protein-Coupled Receptors” (Cell, 2019)
